Measurements as given in US11517555B2, “Solid soluble ferric pyrophosphate formulations, kits, and methods using the same” (ROCKWELL MEDICAL, INC., priority 2015, dated 2022).
“And” between values parts separate entries of the source, which are not always exact repeats. Equal values may be shown once.

Experiments:
[1] = remark: listed apart in the source
From the text: The angle of repose is related to resistance to movement between particles (interparticulate friction) and is the constant, three-dimensional angle relative to the horizontal base assumed by a cone-shaped pile of powder. In a typical assay, a symmetrical cone-shaped pile of powder is built by passing a solid particulate formulation through a funnel onto a vibration-free fixed base. The height of the funnel is maintained approximately 2 cm to 4 cm above the pile to minimize the effect of falling particles on the top of the pile. The angle of repose can then be determined by measuring the height and radius of the cone and calculating the angle of repose from the following equation: angle of repose=tan^−1(height/radius).

[2] = healthy volunteers, 2.5-10 mg iv over 4 hours, 15 and 20 mg iv over 12 hours
[3] = aqueous solution
[4] = biological target: apotransferrin and monoferric transferrin (Homo sapiens, UniProt P02787)
[5] = Cilas 1180LD laser diffraction, liquid dispersion in mineral oil, replicates 1-3, citrate

apotransferrin and monoferric transferrin, sequence (P02787 20-698): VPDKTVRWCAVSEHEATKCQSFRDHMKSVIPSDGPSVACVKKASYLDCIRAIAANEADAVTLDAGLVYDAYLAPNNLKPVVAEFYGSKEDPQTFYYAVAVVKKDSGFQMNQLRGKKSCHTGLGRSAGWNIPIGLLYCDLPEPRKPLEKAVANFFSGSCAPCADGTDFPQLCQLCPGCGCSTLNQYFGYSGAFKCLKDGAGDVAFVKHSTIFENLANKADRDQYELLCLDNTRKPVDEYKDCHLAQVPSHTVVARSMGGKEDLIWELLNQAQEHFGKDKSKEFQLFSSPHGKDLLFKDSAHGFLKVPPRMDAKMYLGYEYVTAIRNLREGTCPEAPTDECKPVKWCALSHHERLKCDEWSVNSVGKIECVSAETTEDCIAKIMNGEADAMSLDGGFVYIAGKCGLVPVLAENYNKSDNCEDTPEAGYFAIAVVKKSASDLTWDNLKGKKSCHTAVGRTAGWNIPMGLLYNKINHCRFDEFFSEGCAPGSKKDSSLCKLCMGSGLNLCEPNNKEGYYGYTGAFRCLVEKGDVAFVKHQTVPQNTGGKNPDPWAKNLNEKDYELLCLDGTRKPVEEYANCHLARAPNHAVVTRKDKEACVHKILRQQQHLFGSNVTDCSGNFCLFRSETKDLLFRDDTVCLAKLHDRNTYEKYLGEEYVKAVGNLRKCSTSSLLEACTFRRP

With `O=C([O-])CC(O)(CC(=O)[O-])C(=O)[O-].O=P(O)(O)OP(=O)(O)O.[Fe+3]` [SFP, Ferric pyrophosphate citrate] as the molecule, how does the D10 [5] read?
Its D10 is 3.57 μm and 3.63 μm and 3.68 μm.

What about the D50 [5] of the same molecule?
Its D50 is 12.73 μm and 12.66 μm and 12.58 μm.

And the D90 [5]?
The D90 was 41.08 μm and 40.18 μm and 39.23 μm.

And the primary particle size (light microscopy, dry powder and mineral oil dispersions)?
Its primary particle size is greater than 5 μm.

What about the “Angle of Response, Average” value ([1]; average of 3 replicate measurements) of the same molecule?
Its value is 41.5 °.

And the “Angle of Response” value ([1]; single replicate measurements 1-3, citrate)?
The value was 42.3 ° and 41.4 ° and 40.9 °.

What about the “AUC of baseline-corrected serum iron” value [2] of the same molecule?
Its value is “increased in a dose proportional manner”.

What about the “Cmax of baseline-corrected serum iron” value [2] of the same molecule?
Its value is “increased in a dose proportional manner”.

And the “Fe(III)-ligand binding” value [3]?
Its value is “Covalent and stable in aqueous”.

What about the Pharmacologic action [4] of the same molecule?
Its Pharmacologic action is “Binds directly to apotransferrin and”.
